How the values were obtained:
E. Coli Juhl = test: Mouse protection test, E. Coli Juhl; assay type: in vivo; settings: Escherichia coli
Source text: (§1) The differences in in vivo antibacterial activity of racemic (R,S) compound (A) versus the (S) enantiomeric form of compound (A) are shown in Table I. |POTENCY OF (A) IN MOUSE PROTECTION TESTS | ED50 (mg/kg/day)

S. Aureus NCTC 10649 = test: Mouse protection test, S. Aureus NCTC 10649; assay type: in vivo; settings: Staphylococcus aureus
Source text: as §1

[1] = racemic mixture; J. Med. Chem., 29, 2363 (1986); cited from earlier work
P. Aeruginosa 5007 = test: Mouse protection test, P. Aeruginosa 5007; assay type: in vivo; settings: Pseudomonas aeruginosa
Source text: as §1

[2] = one enantiomeric form vs the other form; background statement; cited from earlier work

## NC1CCN(c2nc3c(cc2F)c(=O)c(C(=O)O)cn3-c2ccc(F)cc2F)C1 (racemic) [(R,S)--(A), 7-(3-aminopyrrolidin-1-yl)-1-(o,p-difluorophenyl)-1,4-dihydro-6-fluoro-4-oxo-1,8-naphthyridine-3-carboxylic acid]
E. Coli Juhl; oral
  ED50: 1.2 mg/kg
E. Coli Juhl; sc, subcutaneous
  ED50: 0.3 mg/kg
S. Aureus NCTC 10649; NCTC10649, oral
  ED50: 1 mg/kg
S. Aureus NCTC 10649; NCTC10649, sc, subcutaneous
  ED50: 0.4 mg/kg
[1]
  antibacterial properties: has been shown to exhibit antibacterial properties
P. Aeruginosa 5007; oral
  ED50: 16 mg/kg
P. Aeruginosa 5007; sc, subcutaneous
  ED50: > 20 mg/kg

## N[C@H]1CCN(c2nc3c(cc2F)c(=O)c(C(=O)O)cn3-c2ccc(F)cc2F)C1 [(S)--(A), (S)-7-(3-aminopyrrolidin-1-yl)-1-(o,p-difluorophenyl)-1,4-dihydro-6-fluoro-4-oxo-1,8-naphthyridine-3-carboxylic acid]
E. Coli Juhl; oral
  ED50: 0.8 mg/kg
E. Coli Juhl; sc, subcutaneous
  ED50: 0.2 mg/kg
S. Aureus NCTC 10649; NCTC10649, oral
  ED50: 0.8 mg/kg
S. Aureus NCTC 10649; NCTC10649, sc, subcutaneous
  ED50: 0.4 mg/kg
P. Aeruginosa 5007; oral
  ED50: 12.1 mg/kg
P. Aeruginosa 5007; sc, subcutaneous
  ED50: 8.6 mg/kg

## CNCC(O)c1ccc(O)c(O)c1 (centres unmarked) [adrenalin]
[2]
  activity in raising blood pressure, one enantiomeric form versus the other: over ten times more active

Source: patent US4859776A, “(S)-7-(3-aminopyrrolidin-1-yl)-1-(ortho, para-difluorophenyl)-1,4-dihydro-6-fluoro-4-oxo-1,8-naphthyridine-3-carb oxylic acid and method for its preparation” (Abbott Laboratories, priority 1988, dated 1989)
